Laboratory results from patent publication US20230242585A1, “IMMUNOMODULATORS” (Bristol-Myers Squibb Company, priority 2020, published 2023).
Starred links: 1 amine or outer side, 2 acyl side, 3 side chain; linkers in the order of their positions; H or OH if unused. Positions of bridges follow the written chain, without caps; N, C: chain ends. Non-standard residues stand in square brackets, D forms with d. Residues, ends and D or L forms follow the SMILES beside them. X34 = O=C([C@H](CCNC[C@H](O)[C@@H](O)[C@@H](O)CO)N[*:1])[*:2]; X33 = O=C([C@H](CNC[C@H](O)[C@@H](O)[C@@H](O)CO)N[*:1])[*:2]; X26 = O=C([C@H](CCNC[C@H](O)[C@H](O)[C@H](O)CO)N[*:1])[*:2]; X7 = O=C([C@H](CNC[C@H](O)[C@H](O)[C@H](O)CO)N[*:1])[*:2]; Trp(1-CH2COOH) = N[C@@H](Cc1cn(CC(=O)O)c2ccccc12)C(=O)O; X21 = O=C([C@H](CCNCc1c2ccccc2nc2ccccc12)N[*:1])[*:2]; X55 = O=C([C@H](CCNCc1cccc2ccc3ccccc3c12)N[*:1])[*:2]; X10 = O=C([C@H](CNCc1c2ccccc2nc2ccccc12)N[*:1])[*:2]; X12 = O=C([C@H](CNCc1cccc2ccc3ccccc3c12)N[*:1])[*:2]; X36 = COc1cc2cccc(OC)c2cc1CNC[C@H](N[*:1])C(=O)[*:2]; X13 = O=C([C@H](CNCc1cccc2[nH]ccc12)N[*:1])[*:2]; X16 = O=C([C@H](CCNCC(O)C(O)C(O)CO)N[*:1])[*:2]; X15 = O=C([C@H](CNCC(O)C(O)C(O)CO)N[*:1])[*:2]; X17 = O=C([C@H](CNCc1cncc2ccccc12)N[*:1])[*:2]; X20 = O=C([C@H](CNCc1nccc2ccccc12)N[*:1])[*:2]; X61 = O=C([C@H](CCNCc1ccccc1O)N[*:1])[*:2]; X60 = O=C([C@H](CNCc1ccccc1O)N[*:1])[*:2]; Hyp = O=C(O)[C@@H]1C[C@@H](O)CN1; NMeNle = CCCC[C@H](NC)C(=O)O; NMeA = CN[C@@H](C)C(=O)O; Dab = NCC[C@H](N)C(=O)O

biological target: T1, PD-1/PD-L1 (Homo sapiens, UniProt Q9NZQ7); assay: PD-1/PD-L1 Homogenous Time-Resolved Fluorescence (HTRF) binding assay; conditions: PD-L1-His 10 nM, PD-1-Ig 20 nM
T1 construct: TVMV protease site (linker) (C); made in house; host or cells: HEK293T cells
Description: The ability of the compounds of formula (I) to bind to PD-L1 was investigated using a PD-1/PD-L1 Homogenous Time-Resolved Fluorescence (HTRF) binding assay.
The interaction of PD-1 and PD-L1 can be assessed using soluble, purified preparations of the extracellular domains of the two proteins. The PD-1 and PD-L1 protein extracellular domains were expressed as fusion proteins with detection tags, for PD-1, the tag was the Fc portion of Immunoglobulin (PD-1-Ig) and for PD-L1 it was the 6 histidine motif (PD-L1-His). All binding studies were performed in an HTRF assay buffer consisting of dPBS supplemented with 0.1% […] bovine serum albumin and 0.05% (v/v) Tween-20. For the h/PD-L1-His binding assay, inhibitors were pre-incubated with PD-L1-His (10 nM final) for 15 m in 4 µl of assay buffer, followed by addition of PD-1-Ig (20 nM final) in 1 µl of assay buffer and further incubation for 15 m. HTRF detection was achieved using europium crypate-labeled anti-Ig (1 nM final) and allophycocyanin (APC) labeled anti-His (20 nM final). Antibodies were diluted in HTRF detection buffer and 5 µl was dispensed on top of the binding reaction. The reaction mixture was allowed to equilibrate for 30 minutes and the resulting signal (665 nm/620 nm ratio) was obtained using an EnVision fluorometer. Additional binding assays were established between the human proteins PD-1-Ig/PD-L2-His (20 & 5 nM, respectively) and CD80-His/PD-L1-Ig (100 & 10 nM, respectively).
Recombinant Proteins: Human PD-1 (25-167) with a C-terminal human Fc domain of immunoglobulin G (Ig) epitope tag [hPD-1 (25-167)-3S-IG] and human PD-L1 (18-239) with a C-terminal His epitope tag [hPD-L1(18-239)-TVMV-His] were expressed in HEK293T cells and purified sequentially by ProteinA affinity chromatography and size exclusion chromatography. Human PD-L2-His and CD80-His was obtained through commercial sources.
Table 1 lists the IC50 values for representative examples of this disclosure measured in the PD-1/PD-L1 Homogenous Time-Resolved Fluorescence (HTRF) binding assay.

T1 sequence (Q9NZQ7 18-239): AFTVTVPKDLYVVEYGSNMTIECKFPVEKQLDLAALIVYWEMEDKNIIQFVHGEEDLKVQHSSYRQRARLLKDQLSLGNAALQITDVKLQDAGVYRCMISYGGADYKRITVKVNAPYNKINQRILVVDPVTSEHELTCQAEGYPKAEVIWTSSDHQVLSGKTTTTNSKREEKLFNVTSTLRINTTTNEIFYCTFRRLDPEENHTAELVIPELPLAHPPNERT

SMILES | IC50
CCCC[C@H]1C(=O)N(C)[C@@H](CCCC)C(=O)N[C@@H](CC(C)C)C(=O)N[C@H](C(=O)NCC(N)=O)CSCC(=O)N[C@@H](Cc2ccc(O)cc2)C(=O)N(C)[C@@H](C)C(=O)N[C@@H](CC(N)=O)C(=O)N2CCC[C@H]2C(=O)N[C@@H](CNCc2cccc3[nH]ccc23)C(=O)N[C@@H](CC(C)C)C(=O)N2C[C@H](O)C[C@H]2C(=O)N[C@@H](Cc2c[nH]c3ccccc23)C(=O)N[C@@H](CCN)C(=O)N[C@@H](Cc2cn(CC(=O)O)c3ccccc23)C(=O)N1C [Example 1015] ({CH2CO}-Y[NMeA]NP[X13]L[Hyp]W[Dab][Trp(1-CH2COOH)][NMeNle][NMeNle]LCG-NH2; thioether N-14) | 5.1 nM
CCCC[C@H]1C(=O)N(C)[C@@H](CCCC)C(=O)N[C@@H](CC(C)C)C(=O)N[C@H](C(=O)NCC(N)=O)CSCC(=O)N[C@@H](Cc2ccc(O)cc2)C(=O)N(C)[C@@H](C)C(=O)N[C@@H](CC(N)=O)C(=O)N2CCC[C@H]2C(=O)N[C@@H](CNCc2cc3c(OC)cccc3cc2OC)C(=O)N[C@@H](CC(C)C)C(=O)N2C[C@H](O)C[C@H]2C(=O)N[C@@H](Cc2c[nH]c3ccccc23)C(=O)N[C@@H](CCN)C(=O)N[C@@H](Cc2cn(CC(=O)O)c3ccccc23)C(=O)N1C [Example 1016] ({CH2CO}-Y[NMeA]NP[X36]L[Hyp]W[Dab][Trp(1-CH2COOH)][NMeNle][NMeNle]LCG-NH2; thioether N-14) | 6.4 nM
CCCC[C@H]1C(=O)N(C)[C@@H](CCCC)C(=O)N[C@@H](CC(C)C)C(=O)N[C@H](C(=O)NCC(N)=O)CSCC(=O)N[C@@H](Cc2ccc(O)cc2)C(=O)N(C)[C@@H](C)C(=O)N[C@@H](CC(N)=O)C(=O)N2CCC[C@H]2C(=O)N[C@@H](CNCc2nccc3ccccc23)C(=O)N[C@@H](CC(C)C)C(=O)N2C[C@H](O)C[C@H]2C(=O)N[C@@H](Cc2c[nH]c3ccccc23)C(=O)N[C@@H](CCN)C(=O)N[C@@H](Cc2cn(CC(=O)O)c3ccccc23)C(=O)N1C [Example 1018] ({CH2CO}-Y[NMeA]NP[X20]L[Hyp]W[Dab][Trp(1-CH2COOH)][NMeNle][NMeNle]LCG-NH2; thioether N-14) | 8.4 nM
CCCC[C@H]1C(=O)N(C)[C@@H](CCCC)C(=O)N[C@@H](CC(C)C)C(=O)N[C@H](C(=O)NCC(N)=O)CSCC(=O)N[C@@H](Cc2ccc(O)cc2)C(=O)N(C)[C@@H](C)C(=O)N[C@@H](CC(N)=O)C(=O)N2CCC[C@H]2C(=O)N[C@@H](CNCc2cncc3ccccc23)C(=O)N[C@@H](CC(C)C)C(=O)N2C[C@H](O)C[C@H]2C(=O)N[C@@H](Cc2c[nH]c3ccccc23)C(=O)N[C@@H](CCN)C(=O)N[C@@H](Cc2cn(CC(=O)O)c3ccccc23)C(=O)N1C [Example 1019] ({CH2CO}-Y[NMeA]NP[X17]L[Hyp]W[Dab][Trp(1-CH2COOH)][NMeNle][NMeNle]LCG-NH2; thioether N-14) | 7.9 nM
CCCC[C@H]1C(=O)N(C)[C@@H](CCCC)C(=O)N[C@@H](CC(C)C)C(=O)N[C@H](C(=O)NCC(N)=O)CSCC(=O)N[C@@H](Cc2ccc(O)cc2)C(=O)N(C)[C@@H](C)C(=O)N[C@@H](CC(N)=O)C(=O)N2CCC[C@H]2C(=O)N[C@@H](CNCc2c3ccccc3nc3ccccc23)C(=O)N[C@@H](CC(C)C)C(=O)N2C[C@H](O)C[C@H]2C(=O)N[C@@H](Cc2c[nH]c3ccccc23)C(=O)N[C@@H](CCNCc2c3ccccc3nc3ccccc23)C(=O)N[C@@H](Cc2cn(CC(=O)O)c3ccccc23)C(=O)N1C [Example 1020] ({CH2CO}-Y[NMeA]NP[X10]L[Hyp]W[X21][Trp(1-CH2COOH)][NMeNle][NMeNle]LCG-NH2; thioether N-14) | 9.9 nM
CCCC[C@H]1C(=O)N(C)[C@@H](CCCC)C(=O)N[C@@H](CC(C)C)C(=O)N[C@H](C(=O)NCC(N)=O)CSCC(=O)N[C@@H](Cc2ccc(O)cc2)C(=O)N(C)[C@@H](C)C(=O)N[C@@H](CC(N)=O)C(=O)N2CCC[C@H]2C(=O)N[C@@H](CNCc2ccccc2O)C(=O)N[C@@H](CC(C)C)C(=O)N2C[C@H](O)C[C@H]2C(=O)N[C@@H](Cc2c[nH]c3ccccc23)C(=O)N[C@@H](CCNCc2ccccc2O)C(=O)N[C@@H](Cc2cn(CC(=O)O)c3ccccc23)C(=O)N1C [Example 1021] ({CH2CO}-Y[NMeA]NP[X60]L[Hyp]W[X61][Trp(1-CH2COOH)][NMeNle][NMeNle]LCG-NH2; thioether N-14) | 7.6 nM
CCCC[C@H]1C(=O)N(C)[C@@H](CCCC)C(=O)N[C@@H](CC(C)C)C(=O)N[C@H](C(=O)NCC(N)=O)CSCC(=O)N[C@@H](Cc2ccc(O)cc2)C(=O)N(C)[C@@H](C)C(=O)N[C@@H](CC(N)=O)C(=O)N2CCC[C@H]2C(=O)N[C@@H](CNCc2cccc3ccc4ccccc4c23)C(=O)N[C@@H](CC(C)C)C(=O)N2C[C@H](O)C[C@H]2C(=O)N[C@@H](Cc2c[nH]c3ccccc23)C(=O)N[C@@H](CCNCc2cccc3ccc4ccccc4c23)C(=O)N[C@@H](Cc2cn(CC(=O)O)c3ccccc23)C(=O)N1C [Example 1022] ({CH2CO}-Y[NMeA]NP[X12]L[Hyp]W[X55][Trp(1-CH2COOH)][NMeNle][NMeNle]LCG-NH2; thioether N-14) | 1400 nM
CCCC[C@H]1C(=O)N(C)[C@@H](CCCC)C(=O)N[C@@H](CC(C)C)C(=O)N[C@H](C(=O)NCC(N)=O)CSCC(=O)N[C@@H](Cc2ccc(O)cc2)C(=O)N(C)[C@@H](C)C(=O)N[C@@H](CC(N)=O)C(=O)N2CCC[C@H]2C(=O)N[C@@H](CNCC(O)C(O)C(O)CO)C(=O)N[C@@H](CC(C)C)C(=O)N2C[C@H](O)C[C@H]2C(=O)N[C@@H](Cc2c[nH]c3ccccc23)C(=O)N[C@@H](CCNCC(O)C(O)C(O)CO)C(=O)N[C@@H](Cc2cn(CC(=O)O)c3ccccc23)C(=O)N1C (stereo partly drawn) [Example 2001] ({CH2CO}-Y[NMeA]NP[X15]L[Hyp]W[X16][Trp(1-CH2COOH)][NMeNle][NMeNle]LCG-NH2; thioether N-14) | 7.8 nM
CCCC[C@H]1C(=O)N(C)[C@@H](CCCC)C(=O)N[C@@H](CC(C)C)C(=O)N[C@H](C(=O)NCC(N)=O)CSCC(=O)N[C@@H](Cc2ccc(O)cc2)C(=O)N(C)[C@@H](C)C(=O)N[C@@H](CC(N)=O)C(=O)N2CCC[C@H]2C(=O)N[C@@H](CNC[C@H](O)[C@@H](O)[C@@H](O)CO)C(=O)N[C@@H](CC(C)C)C(=O)N2C[C@H](O)C[C@H]2C(=O)N[C@@H](Cc2c[nH]c3ccccc23)C(=O)N[C@@H](CCN)C(=O)N[C@@H](Cc2cn(CC(=O)O)c3ccccc23)C(=O)N1C [Example 2002] ({CH2CO}-Y[NMeA]NP[X33]L[Hyp]W[Dab][Trp(1-CH2COOH)][NMeNle][NMeNle]LCG-NH2; thioether N-14) | 5 nM
CCCC[C@H]1C(=O)N(C)[C@@H](CCCC)C(=O)N[C@@H](CC(C)C)C(=O)N[C@H](C(=O)NCC(N)=O)CSCC(=O)N[C@@H](Cc2ccc(O)cc2)C(=O)N(C)[C@@H](C)C(=O)N[C@@H](CC(N)=O)C(=O)N2CCC[C@H]2C(=O)N[C@@H](CNC[C@H](O)[C@H](O)[C@H](O)CO)C(=O)N[C@@H](CC(C)C)C(=O)N2C[C@H](O)C[C@H]2C(=O)N[C@@H](Cc2c[nH]c3ccccc23)C(=O)N[C@@H](CCNC[C@H](O)[C@H](O)[C@H](O)CO)C(=O)N[C@@H](Cc2cn(CC(=O)O)c3ccccc23)C(=O)N1C [Example 2003] ({CH2CO}-Y[NMeA]NP[X7]L[Hyp]W[X26][Trp(1-CH2COOH)][NMeNle][NMeNle]LCG-NH2; thioether N-14) | 9.9 nM
CCCC[C@H]1C(=O)N(C)[C@@H](CCCC)C(=O)N[C@@H](CC(C)C)C(=O)N[C@H](C(=O)NCC(N)=O)CSCC(=O)N[C@@H](Cc2ccc(O)cc2)C(=O)N(C)[C@@H](C)C(=O)N[C@@H](CC(N)=O)C(=O)N2CCC[C@H]2C(=O)N[C@@H](CNC[C@H](O)[C@@H](O)[C@@H](O)CO)C(=O)N[C@@H](CC(C)C)C(=O)N2C[C@H](O)C[C@H]2C(=O)N[C@@H](Cc2c[nH]c3ccccc23)C(=O)N[C@@H](CCNC[C@H](O)[C@@H](O)[C@@H](O)CO)C(=O)N[C@@H](Cc2cn(CC(=O)O)c3ccccc23)C(=O)N1C [Example 2004] ({CH2CO}-Y[NMeA]NP[X33]L[Hyp]W[X34][Trp(1-CH2COOH)][NMeNle][NMeNle]LCG-NH2; thioether N-14) | 6.7 nM
CCCC[C@H]1C(=O)N(C)[C@@H](CCCC)C(=O)N[C@@H](CC(C)C)C(=O)N[C@H](C(=O)NCC(N)=O)CSCC(=O)N[C@@H](Cc2ccc(O)cc2)C(=O)N(C)[C@@H](C)C(=O)N[C@@H](CC(N)=O)C(=O)N2CCC[C@H]2C(=O)N[C@@H](CNC[C@H](O)[C@H](O)[C@H](O)CO)C(=O)N[C@@H](CC(C)C)C(=O)N2C[C@H](O)C[C@H]2C(=O)N[C@@H](Cc2c[nH]c3ccccc23)C(=O)N[C@@H](CCN)C(=O)N[C@@H](Cc2cn(CC(=O)O)c3ccccc23)C(=O)N1C [Example 2006] ({CH2CO}-Y[NMeA]NP[X7]L[Hyp]W[Dab][Trp(1-CH2COOH)][NMeNle][NMeNle]LCG-NH2; thioether N-14) | 12 nM
